Measured values as given in patent US8809052B2, “Methods of generating mature oligodendrocytes” (Yeda Research and Development Co. Ltd., priority 2006, dated 2014).
“Also recorded” adds a separate entry of the source.

What was measured:
[1] = tested on: human ES cell-derived neuroglial sphere cells; experiment: Count of O4+ cells with oligodendrocyte branching morphology per field after terminal differentiation; format: cell-based
Description: Differentiation of ES cells into oligodendrocytes—The following steps were taken for initiating ES cell differentiation:
1. Step T: Transition step—Collagenase detached huESC colonies pooled from six 6-well plates, into a 15 ml tube supplemented with ES1 medium, were let to sediment by gravity for about 30 minutes in the incubator (37° C.). Colonies were then washed once in ES1 medium and then transferred to 12×6 cm tissue culture plates in 5 ml transition medium (T-medium) consisting of 50% (v/v) ES1 medium, and 50% (v/v) of ITTSPP/B27 medium. Growth factors (GF), recombinant human EGF (20 ng/ml, R&D Systems, Minneapolis, Minn.) and recombinant human bFGF (4 ng/ml, Biotest, Dreieich, Germany) were added to the transition medium. Thereafter (1 d), some cells adhered but the bulk of huESC colonies and aggregates remained in suspension and were transferred to 12 bacterial (non-adherent) plates in the same transition medium and cultured for 1 day. Then, 10 μM retinoic acid (RA, Sigma-Aldrich, St. Lewis, Mo.) was added to the T-medium and cells were cultured for an additional day.
2. Step R: Retinoic acid treatment—The medium was switched to ITTSPP/B27 containing 20 ng/ml of EGF and 10 μM RA. Medium was changed every day for 7 days, and colonies were concentrated by gravity, without centrifugation.
3. Step S: Suspension culture—During this step, which allows for ripening of neurospheres (NS), the aggregates were cultured in ITTSPP/B27 medium supplemented with 20 ng/ml EGF, for 18 days, changing medium every two days. The ITTSPP/B27 medium was, or was not supplemented with 50 ng/ml Noggin-Fc chimera (R&D systems, Minneapolis, Minn.), in order to examine the effect of noggin.
4. Steps M1,2: Adherence to matrigel-coated plates—Spheres or aggregates from one original 6-well plate were distributed to another 6-well plate which had been coated for 1.5 hours at room temperature with matrigel (Matrigel low growth factor concentration; BD Biosciences, Clontech, Palo Alto, Calif., diluted 1:30 in DMEM/F12 Pen-Strep). After one day, the unbound aggregates were discarded and fresh ITTSPP/B27 medium, supplemented with 20 ng/ml EGF, was added. Medium was changed every 3-4 days.
5. Passage with trypsin—Following 1-2 weeks, aggregates were detached and partially dissociated by a short treatment with trypsin 0.05% (2-3 min, 37° C.; Biological industries, Beit Haemek, Israel, diluted in PBS, —Ca and —Mg). Trypsin was rapidly neutralized by addition of 4 volumes of BSA (2 mg/ml; Sigma for Tissue culture) in ITTSPP/B27, and centrifugation at (200 rpm, 10 min), followed by another wash with BSA. This treatment dissociates the aggregates to small clusters that are seeded again onto matrigel-coated plates (at dilution 1:3), in ITTSPP/B27, 20 ng/ml EGF, for another 1-2 weeks (step M2).
(§1) 6. Steps F1,2: Terminal differentiation on matrigel—In step F1 (3 days), the medium was changed to ITTSPP/B27 containing EGF 5 ng/ml and bFGF 5 ng/ml, together with mouse laminin 1 μg/ml, and Vit C (50 μg/ml; Sigma-Aldrich, St. Lewis, Mo.). Some of the wells were treated with noggin (50 ng/ml Noggin-Fc chimera; R&D systems, Minneapolis, Minn.), 2 days after seeding, and noggin was continued thereafter. In step F2, cells were cultured 6 or 10 days in the same medium without growth factor, but with or without noggin. The medium was changed every two to four days.
Immunostaining—Cells were fixed in 12 or 24-well tissue culture plastic plates with 4% paraformaldehyde (PFA), washed with PBS, and kept at 4° C. before staining. Non-specific staining was blocked with normal goat serum (5% w/v in PBS) for 30 min at RT. Thereafter primary mouse monoclonal (mMc) antibodies, diluted in 1% goat serum, were administered. Antibodies used were: anti PDGFR (mMc IgG1, Santa Cruz, 1:500), O4 (mMc IgM, R&D Systems, 1:1000), O1 (mMc IgM, received from Dr Sheila Harroch, Pasteur Institute, Paris), anti tubulin-βIII (mMc IgG1, Cowance, 1:1000), and antibody 1281 (human nuclei antigen HNA, Chemicon). […]

human ES cells = experiment: RT-PCR gene expression at the different culture steps; format: cell-based
Description: RT-PCR—total RNA was isolated from cultures at different culture steps using Tri-Reagent (Molecular Research Center, Cincinnati, Ohio) and RT-PCR was carried out by standard technology as previously described (Slutsky et al., 2003). Expression was checked for the following genes, as described in table 2 below, including the expression of the control gene G3PDH. Also provided in the table are primer sequences used for each gene. For G3PDH, primers from Clontech (Palo Alto, Calif., catalog #9805-1) were used.

[2] = tested on: human ES cell-derived oligodendrocytes; experiment: Number of MBP+ oligodendrocytes by immunostaining; format: cell-based; details: step F2, 10 days without GF, noggin vs without noggin; FIG. 2g
Description: as §1
Immunostaining—Cells were fixed in 12 or 24-well tissue culture plastic plates with 4% paraformaldehyde (PFA), washed with PBS, and kept at 4° C. before staining. Non-specific staining was blocked with normal goat serum (5% w/v in PBS) for 30 min at RT. Thereafter primary mouse monoclonal (mMc) antibodies, diluted in 1% goat serum, were administered. […] An Olympus IX-70 FLA microscope with a DVC-1310C digital camera (DVC, Austin, Tex.) was used and images were processed with Photoshop and analyzed with Image-ProPlus software (Media Cybernetics, Silver Spring, Md.), in order to measure Integrated Optic Density (IOD) of color-specific pixels and MBP fiber length. […]

shiverer brain slices = experiment: Ex vivo transplantation of human ES-NSc on shiverer brain slices (organotypic cultures), MBP staining and electron microscopy; format: cell-based, mouse
Description: Immunostaining—Cells were fixed in 12 or 24-well tissue culture plastic plates with 4% paraformaldehyde (PFA), washed with PBS, and kept at 4° C. before staining. Non-specific staining was blocked with normal goat serum (5% w/v in PBS) for 30 min at RT. Thereafter primary mouse monoclonal (mMc) antibodies, diluted in 1% goat serum, were administered. Antibodies used were: anti PDGFR (mMc IgG1, Santa Cruz, 1:500), O4 (mMc IgM, R&D Systems, 1:1000), O1 (mMc IgM, received from Dr Sheila Harroch, Pasteur Institute, Paris), anti tubulin-βIII (mMc IgG1, Cowance, 1:1000), and antibody 1281 (human nuclei antigen HNA, Chemicon). Following overnight exposure to the appropriate antibody (4° C.), biotinylated goat anti-mouse IgG1 (Southern Biotech, 1:50) was added for 30 minutes, followed by Cy3-tagged streptavidine (ABC laboratories, 1:2000). […] Staining for MBP was with rat monoclonal anti MBP (ab7349, AbCam, 1/500), and Cy3-conjugated Affipure goat anti rat IgG (Jackson laboratories, 1:500). […] An Olympus IX-70 FLA microscope with a DVC-1310C digital camera (DVC, Austin, Tex.) was used and images were processed with Photoshop and analyzed with Image-ProPlus software (Media Cybernetics, Silver Spring, Md.), in order to measure Integrated Optic Density (IOD) of color-specific pixels and MBP fiber length. […]

Shiverer mice = experiment: Transplantation of huES-NSc into brain of shiverer mice, MBP-stained fibers; format: in vivo, mouse; details: FIG. 4e
Text: Animal model—Shiverer mice have an extensive deletion in the MBP gene (Roach et al., 1985) and in a homozygous shi−/− animal there is no MBP immunoreactivity in the CNS. The appearance of fibers showing immunostaining for MBP following transplantation of oligodendrocyte precursors therefore indicates, that the transplanted cells have the capacity to myelinate endogenous neurons (Lachapelle et al., 1983).
Transplantation of huES-NSc in Shiverer mice—For transplantation, ES cell-derived dissociated neuroglial sphere cells (huEs-NSc) were prepared as described in Example 3. The culture steps from step T to step D3 that were followed, are outlined in Table 1 condition 3. in Example 1. However, Step D3 was for 9 days, with and without 50 ng/ml noggin. Growth factors were then removed for one day, during which 1 μg/ml laminin, and 50 μg/m Vit C were added to the N2/B27 medium (step F2, as described in Example 1). The culture was thereafter subjected to the short trypsin treatment (see Example 1) and the cells were injected intraventricularly to homozygous shiverer mice. One day old shi/shi pups were anesthetized by brief hypothermia and received an injection of 10^5 cells in 2 μl, over a period of 3 minutes, into the brain third ventricule, using a Hamilton 10 μl syringe. The pups were then warmed and returned to their mothers. […]

[3] = Dissociated cells, Passage 2, listed as noggin
[4] = On Matrigel, noggin added at Step S
[5] = On Matrigel, noggin added at Steps F and S

Substance: bFGF: recombinant human basic fibroblast growth factor
- effect of addition at step S (ripening of neurospheres) ([1]; bFGF 20 ng/ml at step S): not found to be helpful
- oligodendrocytes formed in the final differentiation step F ([1]; bFGF alternating with EGF during step S (without noggin), step F with noggin): 0.66±0.5
- expansion of dissociated precursor cells ([1]; combination of bFGF and EGF at step D2): better than EGF alone
- induction of Nkx2.2 (human ES cells; protocol based on bFGF treatment with neither RA nor noggin, FIG. 1b): failed to induce Nkx2.2

Substance: Noggin
- oligodendrocytes formed in the differentiation step ([1]; Dissociated cells, passage 2, noggin added at the early step S): 1.77±1.2
- Fold (with vs without noggin), number of oligodendrocytes per field ([1]; Dissociated cells, Passage 2): 9.1
- Number of oligodendrocytes per field ([1]; Dissociated cells, Passage 2): 5.20 ± 1.7
- O4+ cells with ramified oligodendrocyte shape as share of total cells ([1]; Dissociated cells, Passage 2): about 5%
- total O4+ cells as share of total cells ([1]; Dissociated cells, Passage 2): about 15%
- Fold (with vs without noggin), number of oligodendrocytes per field [1, 3]: 9
- Number of oligodendrocytes per field [1, 3]: 5.20±1.7
- Fold (with vs without noggin), number of oligodendrocytes per field ([1]; Dissociated cells, Passage 3): 7.1
- Number of oligodendrocytes per field ([1]; Dissociated cells, Passage 3): 10.14 ± 5.2
- Fold (with vs without noggin), number of oligodendrocytes per field ([1]; Dissociated cells, Passage 4): 6.0
- Number of oligodendrocytes per field ([1]; Dissociated cells, Passage 4): 12.05 ± 3.6
- Number of oligodendrocytes per field ([1]; On Matrigel, noggin 50 ng/ml added at Step F, 6 days without growth factors, fields of 0.4 mm^2): 5.76 ± 4.2
- Fold (with vs without noggin), number of oligodendrocytes per field ([1]; On Matrigel, noggin added at Step F): 8.7
- Fold (with vs without noggin), number of oligodendrocytes per field [1, 4]: 2.2
- Number of oligodendrocytes per field [1, 4]: 1.50 ± 1.4
- Fold (with vs without noggin), number of oligodendrocytes per field [1, 5]: 4.4
- Number of oligodendrocytes per field [1, 5]: 2.95 ± 1.7
- proportion of oligodendrocytes of the total cells in the culture ([1]; after sub-passages (passages 3 and 4), noggin during steps D and F): 43%
- number of well-developed oligodendrocytes displaying ramified branches ([1]; on matrigel, 10 days without growth factors, FIGS. 1g-h): strong effect
- number of MBP+ oligodendrocytes [2]: very significant stimulation; also recorded: strong stimulation
- myelin by electron microscopy (shiverer brain slices; brain tissue transplanted with noggin-treated huES-NS cells, FIG. 5e,f): compacted myelin sheaths, with major dense lines, were formed
- overall myelinating capacity (extent of MBP staining and mean length of MBP+ fibers) (shiverer brain slices; noggin-treated vs untreated huES-NS cells, two weeks after implantation, FIG. 5g): markedly enhanced
- expression of Oct4 and Rex1 (human ES cells; after step S with noggin): down-regulated
- expression of myelin proteolipid protein (PLP) (human ES cells; after step S with noggin): increasing
- expression of PDGF-Rα (human ES cells; after step S with noggin, FIG. 1a lane 3): decreased
- expression of Nkx2.2 and Sox10 (human ES cells; after step S, noggin 50 ng/ml, FIG. 1a lane 3): seen only when noggin was added
- number of MBP fibers/field (Shiverer mice; cells cultured with vs without noggin): increased
- increase in the number of MBP fibers (Shiverer mice; huES-NSc treated 9 days with 50 ng/ml noggin at step D3, injected into third ventricule, four weeks): 3.5-4 fold
